In patent US10308639B2, “Phosphatidylinositol 3-kinase inhibitors” (Gilead Sciences, Inc., priority 2014, dated 2019):
Like-named read-outs stand apart in the source and are kept apart here.

Key:
[1] = molecular target: T1, PI3Kγ (Homo sapiens, UniProt P48736); test: TR-FRET enzymatic activity assay, PI3Kγ; assay type: biochemical
T1 construct: made in house
Procedure: The compounds of formula (I) were characterized for their enzymatic activity against the PI3K isoforms. The activities were measured using a time-resolved fluorescence resonance energy transfer (TR-FRET) assay.

[2] = molecular target: T2, PI3Kδ (Homo sapiens, UniProt O00329); test: TR-FRET enzymatic activity assay, PI3Kδ; assay type: biochemical; settings: Table 2a; same assay
T2 construct: made in house
T2 sequence (O00329 whole entry): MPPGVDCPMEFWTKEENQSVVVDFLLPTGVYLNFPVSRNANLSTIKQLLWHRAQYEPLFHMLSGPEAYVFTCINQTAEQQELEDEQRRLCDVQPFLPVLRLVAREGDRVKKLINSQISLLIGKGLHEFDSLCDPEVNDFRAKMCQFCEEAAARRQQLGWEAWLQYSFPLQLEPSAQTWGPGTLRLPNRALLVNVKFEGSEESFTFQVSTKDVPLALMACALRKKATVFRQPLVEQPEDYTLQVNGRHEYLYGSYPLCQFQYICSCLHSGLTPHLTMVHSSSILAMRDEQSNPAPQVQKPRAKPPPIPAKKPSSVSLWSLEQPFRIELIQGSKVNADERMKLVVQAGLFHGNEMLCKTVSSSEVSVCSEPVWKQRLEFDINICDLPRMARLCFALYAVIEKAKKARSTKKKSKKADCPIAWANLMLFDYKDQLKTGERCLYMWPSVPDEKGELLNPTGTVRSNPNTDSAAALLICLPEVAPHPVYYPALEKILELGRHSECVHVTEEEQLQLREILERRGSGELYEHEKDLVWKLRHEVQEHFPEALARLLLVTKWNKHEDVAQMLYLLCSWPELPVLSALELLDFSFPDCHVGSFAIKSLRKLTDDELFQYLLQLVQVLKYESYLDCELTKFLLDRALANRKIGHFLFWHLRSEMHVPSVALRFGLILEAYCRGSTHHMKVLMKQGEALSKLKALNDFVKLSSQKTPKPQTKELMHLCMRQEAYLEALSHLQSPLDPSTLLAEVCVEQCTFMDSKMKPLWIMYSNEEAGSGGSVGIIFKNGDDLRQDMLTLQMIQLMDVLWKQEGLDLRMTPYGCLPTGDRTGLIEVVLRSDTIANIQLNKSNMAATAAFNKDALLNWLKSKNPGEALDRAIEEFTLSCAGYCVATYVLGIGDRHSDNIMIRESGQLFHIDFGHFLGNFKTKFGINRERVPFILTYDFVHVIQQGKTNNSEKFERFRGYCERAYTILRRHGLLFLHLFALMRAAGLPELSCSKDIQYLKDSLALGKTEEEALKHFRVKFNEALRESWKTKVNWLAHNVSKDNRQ
T2 sequence (P27986 whole entry partner): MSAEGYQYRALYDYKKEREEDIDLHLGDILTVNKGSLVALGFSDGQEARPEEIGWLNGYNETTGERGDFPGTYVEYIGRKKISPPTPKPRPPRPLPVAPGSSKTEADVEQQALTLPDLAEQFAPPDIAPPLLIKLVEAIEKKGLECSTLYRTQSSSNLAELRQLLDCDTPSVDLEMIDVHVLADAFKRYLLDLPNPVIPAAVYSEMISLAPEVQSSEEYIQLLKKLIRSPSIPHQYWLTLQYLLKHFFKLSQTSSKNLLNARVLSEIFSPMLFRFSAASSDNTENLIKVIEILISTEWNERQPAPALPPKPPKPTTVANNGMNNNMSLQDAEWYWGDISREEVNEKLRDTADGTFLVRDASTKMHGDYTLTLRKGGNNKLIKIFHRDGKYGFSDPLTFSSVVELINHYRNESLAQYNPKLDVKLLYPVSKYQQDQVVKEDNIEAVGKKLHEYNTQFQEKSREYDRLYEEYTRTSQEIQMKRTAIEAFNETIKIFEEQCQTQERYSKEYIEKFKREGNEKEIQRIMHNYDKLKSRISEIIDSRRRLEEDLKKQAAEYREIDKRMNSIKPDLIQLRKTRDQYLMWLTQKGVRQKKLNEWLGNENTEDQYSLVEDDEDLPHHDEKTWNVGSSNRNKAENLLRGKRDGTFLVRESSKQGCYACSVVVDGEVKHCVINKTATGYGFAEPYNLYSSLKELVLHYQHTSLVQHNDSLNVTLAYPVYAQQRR

[3] = Table 2, TR-FRET, 2x Km ATP, 30 minutes at 25° C., read-out: PI3Kγ IC50
[4] = Table 2a, same assay, read-out: PI3Kγ IC50

T1 sequence (P48736 whole entry): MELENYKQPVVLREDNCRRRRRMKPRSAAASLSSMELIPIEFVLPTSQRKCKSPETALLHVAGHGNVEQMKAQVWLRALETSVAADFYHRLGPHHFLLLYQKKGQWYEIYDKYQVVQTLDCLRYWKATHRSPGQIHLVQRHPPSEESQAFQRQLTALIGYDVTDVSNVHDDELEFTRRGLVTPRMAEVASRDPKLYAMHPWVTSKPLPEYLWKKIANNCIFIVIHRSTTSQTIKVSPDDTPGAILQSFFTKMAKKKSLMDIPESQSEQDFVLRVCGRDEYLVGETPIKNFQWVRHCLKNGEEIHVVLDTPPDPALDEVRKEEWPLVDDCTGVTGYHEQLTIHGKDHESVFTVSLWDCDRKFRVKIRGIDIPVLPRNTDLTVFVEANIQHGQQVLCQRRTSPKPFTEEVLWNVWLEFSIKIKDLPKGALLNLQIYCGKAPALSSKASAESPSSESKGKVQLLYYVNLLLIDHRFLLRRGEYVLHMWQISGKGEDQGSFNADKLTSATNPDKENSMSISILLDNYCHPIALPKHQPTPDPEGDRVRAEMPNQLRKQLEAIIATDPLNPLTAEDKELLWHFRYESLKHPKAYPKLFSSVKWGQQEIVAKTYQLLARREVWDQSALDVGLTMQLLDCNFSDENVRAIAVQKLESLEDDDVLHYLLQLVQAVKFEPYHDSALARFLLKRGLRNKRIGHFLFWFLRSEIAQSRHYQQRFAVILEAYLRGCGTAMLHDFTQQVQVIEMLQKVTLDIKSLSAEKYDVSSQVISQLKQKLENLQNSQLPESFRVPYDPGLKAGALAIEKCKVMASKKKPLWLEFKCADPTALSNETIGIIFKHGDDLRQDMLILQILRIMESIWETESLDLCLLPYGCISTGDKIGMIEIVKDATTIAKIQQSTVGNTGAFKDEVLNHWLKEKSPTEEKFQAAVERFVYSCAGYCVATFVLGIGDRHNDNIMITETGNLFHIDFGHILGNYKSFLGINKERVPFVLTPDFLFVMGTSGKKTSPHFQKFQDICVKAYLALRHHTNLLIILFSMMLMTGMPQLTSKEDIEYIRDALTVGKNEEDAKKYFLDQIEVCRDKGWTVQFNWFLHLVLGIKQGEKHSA

Row | IC50 [1, 3] [µM] | IC50 [1, 4] [µM] | Structure (SMILES) | also measured
1 | 0.051 | – | C[C@H](Nc1nc(N)nc(N)c1C#N)c1nc2cccc(Cl)c2c(=O)n1-c1cc[nH]n1 [Compound 16, (S)-2,4-diamino-6-((1-(5-chloro-4-oxo-3-(1H-pyrazoyl)-3,4-dihydroquinazolin-2-yl)ethyl)amino)pyrimidine-5-carbonitrile] | –
2 | – | – | C[C@H](Nc1nc(N)nc(N)c1Cl)c1nc2c(Cl)cc(F)cc2c(=O)n1-c1cc[nH]n1 [Compound 123, (S)-8-chloro-2-(1-((2,6-diamino-5-chloropyrimidin-4-yl)amino)ethyl)-6-fluoro-3-(1H-pyrazol-3-yl)quinazolin-4(3h)-one] | IC50 [1]: > 10 µM
3 | – | 1.1 | N#Cc1c(N[C@H](c2nc3cccc(Cl)c3c(=O)n2-c2cc[nH]n2)C2CC2)nc(N)nc1C(F)F [Compound 171, (S)-2-amino-4-(((5-chloro-4-oxo-3-(1H-pyrazol-3-yl)-3,4-dihydroquinazolin-2-yl)(cyclopropyl)methyl)amino)-6-(difluoromethyl)pyrimidine-5-carbonitrile] | –
4 | – | > 10 | C[C@H](Nc1nc(N)nc(C(F)F)c1C#N)c1nc2cccc(F)c2c(=O)n1-c1cc[nH]n1 [Compound 191, (S)-2-amino-4-(difluoromethyl)-6-((1-(5-fluoro-4-oxo-3-(1H-pyrazol-3-yl)-3,4-dihydroquinazolin-2-yl)ethyl)amino)pyrimidine-5-carbonitrile] | –
5 | 0.19 | – | N#Cc1c(N)nc(N)nc1N[C@H](c1nc2cccc(Cl)c2c(=O)n1-c1cc[nH]n1)C1CC1 [Compound 18, (S)-2,4-diamino-6-(((5-chloro-4-oxo-3-(1H-pyrazol-3-yl)-3,4-dihydroquinazolin-2-yl)(cyclopropyl)methyl)amino)pyrimidine-5-carbonitrile] | –
6 | – | > 10 | C[C@H](Nc1nc(N)nc(C(F)(F)F)c1C#N)c1nc2cccc(Cl)c2c(=O)n1-c1cc[nH]n1 [Compound 168, (S)-2-amino-4-((1-(5-chloro-4-oxo-3-(1H-pyrazol-3-yl)-3,4-dihydroquinazolin-2-yl)ethyl)amino)-6-(trifluoromethyl)pyrimidine-5-carbonitrile] | –
7 | – | – | C[C@H](Nc1nc(N)nc(N)c1Cl)c1nc2ccc(F)cc2c(=O)n1-c1cc[nH]n1 [Compound 111, (S)-2-(1-((2,6-diamino-5-chloropyrimidin-4-yl)amino)ethyl)-6-fluoro-3-(1H-pyrazol-3-yl)quinazolin-4(3h)-one] | IC50 [1]: > 10 µM
8 | – | 3.5 | N#Cc1c(N[C@H](c2nc3c(Cl)cc(F)cc3c(=O)n2-c2cc[nH]n2)C2CC2)nc(N)nc1C(F)F [Compound 172, (S)-2-amino-4-(((8-chloro-6-fluoro-4-oxo-3-(1H-pyrazol-3-yl)-3,4-dihydroquinazolin-2-yl)(cyclopropyl)methyl)amino)-6-(difluoromethyl)pyrimidine-5-carbonitrile] | –
9 | – | 8 | C[C@H](Nc1nc(N)nc(C(F)F)c1C#N)c1nc2ccc(F)cc2c(=O)n1-c1cc[nH]n1 [Compound 193, (S)-2-amino-4-(difluoromethyl)-6-((1-(6-fluoro-4-oxo-3-(1H-pyrazol-3-yl)-3,4-dihydroquinazolin-2-yl)ethyl)amino)pyrimidine-5-carbonitrile] | –
10 | – | > 10 | Nc1nc(N)c(Cl)c(N[C@@H](c2nc3cccc(Cl)c3c(=O)n2-c2cc[nH]n2)C2CC2)n1 [Compound 160, (R)-5-chloro-2-(cyclopropyl((2,6-diamino-5-chloropyrimidin-4-yl)amino)methyl)-3-(1H-pyrazol-3-yl)quinazolin-4(3H)-one] | –
11 | 0.63 | – | N#Cc1c(N)nc(N)nc1N[C@H](c1nc2c(Cl)cc(F)cc2c(=O)n1-c1cc[nH]n1)C1CC1 [Compound 125, (S)-2,4-diamino-6-(((8-chloro-6-fluoro-4-oxo-3-(1H-pyrazol-3-yl)-3,4-dihydroquinazolin-2-yl)(cyclopropyl)methyl)amino)pyrimidine-5-carbonitrile] | –
12 | – | 4.3 | C[C@H](Nc1nc(N)nc(C(F)F)c1C#N)c1nc2c(F)cccc2c(=O)n1-c1cc[nH]n1 [Compound 186, (S)-2-amino-4-(difluoromethyl)-6-((1-(8-fluoro-4-oxo-3-(1H-pyrazol-3-yl)-3,4-dihydroquinazolin-2-yl)ethyl)amino)pyrimidine-5-carbonitrile] | –
13 | – | – | C[C@H](Nc1cc(N)nc(N)n1)c1nc2cccc(Cl)c2c(=O)n1-c1cc[nH]n1 [Compound 163, (S)-5-chloro-2-(1-((2,6-diaminopyrimidin-4-yl)amino)ethyl)-3-(1H-pyrazol-3-yl)quinazolin-4(3H)-one] | IC50 [1]: > 10 µM
14 | – | 2.3 | C[C@H](Nc1nc(N)nc(C(F)F)c1C#N)c1nc2c(F)cc(F)cc2c(=O)n1-c1cc[nH]n1 [Compound 187, (S)-2-amino-4-((1-(6,8-difluoro-4-oxo-3-(1H-pyrazol-3-yl)-3,4-dihydroquinazolin-2-yl)ethyl)amino)-6-(difluoromethyl)pyrimidine-5-carbonitrile] | IC50 [2]: 0.006 µM
15 | 5.9 | – | Nc1nc(N)c(Cl)c(N[C@H](c2nc3cccc(Cl)c3c(=O)n2-c2cc[nH]n2)C2CC2)n1 [Compound 20, (S)-5-chloro-2-(cyclopropyl((2,6-diamino-5-chloropyrimidin-4-yl)amino)methyl)-3-(1H-pyrazol-3-yl)quinazolin-4(3H)-one] | –
16 | – | > 10 | C[C@H](Nc1nc(N)nc(C(F)F)c1Cl)c1nc2c(F)c(F)ccc2c(=O)n1-c1cc[nH]n1 [Compound 234, (S)-2-(1-((2-amino-5-chloro-6-(difluoromethyl)pyrimidin-4-yl)amino)ethyl)-7,8-difluoro-3-(1H-pyrazol-3-yl)quinazolin-4(3H)-one] | IC50 [2]: 7.6 µM
17 | – | 1.3 | C[C@H](Nc1nc(N)nc(C(F)F)c1C#N)c1nc2c(Cl)cc(F)cc2c(=O)n1-c1cc[nH]n1 [Compound 173, (S)-2-amino-4-((1-(8-chloro-6-fluoro-4-oxo-3-(1H-pyrazol-3-yl)-3,4-dihydroquinazolin-2-yl)ethyl)amino)-6-(difluoromethyl)pyrimidine-5-carbonitrile] | –
18 | – | > 10 | C[C@H](Nc1nc(N)nc(C(F)F)c1Cl)c1nc2cc(F)cc(F)c2c(=O)n1-c1cc[nH]n1 [Compound 233, (S)-2-(1-((2-amino-5-chloro-6-(difluoromethyl)pyrimidin-4-yl)amino)ethyl)-5,7-difluoro-3-(1H-pyrazol-3-yl)quinazolin-4(3H)-one] | IC50 [2]: 10 µM
19 | – | > 10 | CC[C@H](Nc1nc(N)nc(N)c1Cl)c1nc2c(Cl)cc(F)cc2c(=O)n1-c1cc[nH]n1 [Compound 257, (S)-8-chloro-2-(1-((2,6-diamino-5-chloropyrimidin-4-yl)amino)propyl)-6-fluoro-3-(1H-pyrazol-3-yl)quinazolin-4(3H)-one] | –
20 | 1.3 | – | N#Cc1c(Cl)nc(N)nc1N[C@H](c1nc2cccc(Cl)c2c(=O)n1-c1cc[nH]n1)C1CC1 [Compound 63, (S)-2-amino-4-chloro-6-(((5-chloro-4-oxo-3-(1H-pyrazol-3-yl)-3,4-dihydroquinazolin-2-yl)(cyclopropyl)methyl)amino)pyrimidine-5-carbonitrile] | –
21 | 0.27 | – | Cc1nc(N)nc(N[C@H](c2nc3cccc(Cl)c3c(=O)n2-c2cc[nH]n2)C2CC2)c1C#N [Compound 28, (S)-2-amino-4-(((5-chloro-4-oxo-3-(1H-pyrazol-3-yl)-3,4-dihydroquinazolin-2-yl)(cyclopropyl)methyl)amino)-6-methylpyrimidine-5-carbonitrile] | –
22 | – | – | C[C@H](Nc1nc(N)nc(N)c1Cl)c1nc2c(F)cccc2c(=O)n1-c1cc[nH]n1 [Compound 153, (S)-2-(1-((2,6-diamino-5-chloropyrimidin-4-yl)amino)ethyl)-8-fluoro-3-(1H-pyrazol-3-yl)quinazolin-4(3H)-one] | IC50 [1]: > 10 µM
23 | – | – | C[C@@H](Nc1nc(N)nc(N)c1Cl)c1nc2c(Cl)cc(F)cc2c(=O)n1-c1cc[nH]n1 [Compound 174, (R)-8-chloro-2-(1-((2,6-diamino-5-chloropyrimidin-4-yl)amino)ethyl)-6-fluoro-3-(1H-pyrazol-3-yl)quinazolin-4(3H)-one] | IC50 [1]: > 10 µM
24 | – | 7.8 | CC[C@H](Nc1nc(N)nc(C(F)F)c1C#N)c1nc2c(Cl)cc(F)cc2c(=O)n1-c1cc[nH]n1 [Compound 180, (S)-2-amino-4-((1-(8-chloro-6-fluoro-4-oxo-3-(1H-pyrazol-3-yl)-3,4-dihydroquinazolin-2-yl)propyl)amino)-6-(difluoromethyl)pyrimidine-5-carbonitrile] | –
25 | – | – | C[C@H](Nc1nc(N)nc(N)c1Cl)c1nc2cccc(F)c2c(=O)n1-c1cc[nH]n1 [Compound 151, (S)-2-(1-((2,6-diamino-5-chloropyrimidin-4-yl)amino)ethyl)-5-fluoro-3-(1H-pyrazol-3-yl)quinazolin-4(3H)-one] | IC50 [1]: > 10 µM

Row | Structure (SMILES) | IC50 [1, 3] [µM] | IC50 [1, 4] [µM] | also measured
26 | C[C@H](Nc1ncnc(N)c1C#N)c1nc2cccc(Cl)c2c(=O)n1-c1cn[nH]c1 [Compound 2, (S)-4-amino-6-((1-(5-chloro-4-oxo-3-(1H-pyrazol-4-yl)-3,4-dihydroquinazolin-2-yl)ethyl)amino)pyrimidine-5-carbonitrile] | 0.99 | – | –
27 | C[C@H](Nc1nc(N)nc(N)c1Cl)c1nc2c(F)cc(F)cc2c(=O)n1-c1cc[nH]n1 [Compound 161, (S)-2-(1-((2,6-diamino-5-chloropyrimidin-4-yl)amino)ethyl)-6,8-difluoro-3-(1H-pyrazol-3-yl)quinazolin-4(3H)-one] | – | 4.4 | –
28 | C[C@H](Nc1nc(N)nc(N)c1Cl)c1nc2cccc(Cl)c2c(=O)n1-c1cc[nH]n1 [Compound 64, (S)-5-chloro-2-(1-((2,6-diamino-5-chloropyrimidin-4-yl)amino)ethyl)-3-(1H-pyrazol-3-yl)quinazolin-4(3H)-one] | 1.2 | – | –
29 | C[C@H](Nc1ncnc(N)c1C#N)c1nc2cccc(Cl)c2c(=O)n1-c1cc[nH]n1 [Compound 22, (S)-4-amino-6-((1-(5-chloro-4-oxo-3-(1H-pyrazol-3-yl)-3,4-dihydroquinazolin-2-yl)ethyl)amino)pyrimidine-5-carbonitrile] | 0.99 | – | –
